Legend:
[1] = Perfume stabilization effect (sequestering agent combination); parameters: key to Sunlight exposure (80 MJ) Smell evaluation: A: No change; B: No almost change; C: Yes change
Description: Next, for combinations with sequestering agent, photostabilization effect for each perfume was studied by the following evaluation formulation.
Each test sample was prepared. Smell change of samples exposed to sunlight (80 MJ) was observed (judgement by perfumier).

[2] = Pigment stabilization effect (sequestering agent combination); parameters: key to Sunlight exposure (80 MJ) Appearance: A: No change; B: No almost change; C: Yes change; key to Sunlight exposure (80 MJ) ΔE: color difference ΔE in Lab space vs. color before sunlight exposure; details: photostabilizer 0, amounts wt %
Description: First of all, the photostabilization effect and appearance changes of a composition for each pigment were studied by the following evaluation formulation.
Each test sample was prepared. Observation of appearance changes (visual evaluation) and measurement of color difference (ΔE) were carried out for samples exposed to sunlight (around 80 MJ).
Color difference was measured by Lab coordinate system with spectrophotometer. Color difference was calculated based on the color before sunlight exposure. Namely, from the measured value (L1,a1,b1) before sunlight exposure, color difference (ΔE) was calculated by following formula.

[3] = colorant Green No. 3 0.0001, sequestering agent 0.03 alone
[4] = colorant Red No. 106 0.0001, sequestering agent 0.02 alone
[5] = colorant Red No. 401 0.001, sequestering agent 0.1 alone
[6] = colorant Yellow No. 5 0.001, sequestering agent 0.02 alone

Compound	Sunlight exposure (80 MJ) Smell evaluation [1]	Sunlight exposure (80 MJ) Appearance [2, 3]	Sunlight exposure (80 MJ) ΔE [2, 3]	Sunlight exposure (80 MJ) Appearance [2, 4]	Sunlight exposure (80 MJ) ΔE [2, 4]	Sunlight exposure (80 MJ) Appearance [2, 5]	Sunlight exposure (80 MJ) ΔE [2, 5]	Sunlight exposure (80 MJ) Appearance [2, 6]	Sunlight exposure (80 MJ) ΔE [2, 6]
O=C([O-])CNCCN(CC(=O)[O-])CC(=O)[O-].[Na+].[Na+].[Na+] [Trisodium ethylenediamine triacetate]	C	–	–	–	–	–	–	–	–
Sodium polyphosphate	–	C	2.1	C	2.92	C	7.14	C	1.75

— patent US6395896B2, “Pyridazine derivatives, manufacturing method and related composition” (Shiseido Co., Ltd., priority 1999, dated 2002)
